# Measurements as given in publication PMC8776894 (Communications Biology, 2022).
# Legend:
# [1] = tested on: MCAO/R mice; settings: mouse, in vivo
# [2] = tested on: AKT phosphorylation; assay: p-AKT immunoblot under OGD/R with HOE140; format: cell-based; settings: HOE140 100 nM, VK 0.0735, 0.735, 7.35 µM
# Text: (5 pictures or pasted objects on this page, not shown here)
# [3] = tested on: MCAO/R mice; assay: Evans blue extravasation, BBB permeability; format: in vivo, mouse; settings: VK 300 µg/kg
# [4] = tested on: rats; settings: BK after transient forebrain ischemia in rats; ref not given; cited from earlier work
# Description: After the onset of cerebral ischemia stroke, ATP levels expeditiously decline during the first 5 min and fall to ~15–30% of the ATP concentration measured in the non-ischemic hemisphere over the first 2 h after ischemia onset. In the present study, VK therapy partially recovered energy metabolism in the ischemic hemisphere as determined by the detection of ATP and LD content. Furthermore, to illustrate the effect of VK on energy metabolism in neurons, the glycolysis and oxidative phosphorylation pathways in neurons were also evaluated by Seahorse after stroke. Increasing evidence indicates tha ...
# [5] = tested on: HT22 hippocampal neuron cells (OGD/R); assay: Live-cell imaging of FITC-labeled VK; format: cell-based, mouse; settings: HT22 cells after OGD/R, 7.35 µM (b12; method b96: 100 nM), 37 °C, confocal fluorescence
# Description: VK (Gly–Arg–Pro–Hyp–[…]NH2) was labeled with FITC in the N-terminus. VK (100 nM) was added to each well and, after 15 min of incubation at 37 °C, live-cell images were acquired and processed by confocal microscopy (Zeiss LSM 880). Live-cell images were recorded for 90 min. The negative group was FITC treated without labeled VK.
# After 24 h, medium in the transwell
# Cell cultures, treatment, and OGD.
# Experiments were divided into the four
# [6] = tested on: brain of MCAO mice; assay: Fluorescence imaging of FITC-labeled VK in brain of stroke mice; format: in vivo, mouse; settings: stroke mice, brains collected at 0, 30, 60, 90, 120 min, confocal microscopy of sections
# Description: A successful MCAO model was established and these mice were used for subsequent experiments. Immediately after surgery, FITC or FITC-labeled VK were administered intravenously and mice were killed after 30 min to isolate the brain and imaged by an imaging system (IVIS Lumina II). For fluorescent imaging, the brain was immediately collected and kept in the dark for 0, 30, 60, and 90 min after the administration of VK. Frozen sections were prepared according to the above method (seen Morphological Assessment). Images were acquired by confocal microscopy (FV1000 MPE-B, Olympus).
compound,measurement,setting,value
Lys-(des-Arg9-Leu8)-BK [reference compound],functional injury under combination of VK and B1R antagonist,[1],improved functional injury
HOE140,major pharmacological effects of VK under HOE140 preconditioning,[1],blocked
same,VK-mediated AKT activation,[2],inhibit VK-mediated AKT activation
same,"BBB integrity under combined administration of VK and HOE140, EB extravasation",[3],damaged the BBB integrity
"bradykinin (RPPGFSPFR; Bradykinin; UniProt P01042 381-389, looked up) [BK, endogenous peptide]",neuroprotection,[4],97%
CC[C@H](C)[C@H](NC(=O)[C@H](CCCNC(=N)N)NC(=O)[C@H](Cc1ccccc1)NC(=O)[C@@H]1CCCN1C(=O)[C@H](CO)NC(=O)[C@H](Cc1ccccc1)NC(=O)CNC(=O)[C@@H]1C[C@@H](O)CN1C(=O)[C@@H]1CCCN1C(=O)[C@H](CCCNC(=N)N)NC(=O)CNC(=S)Nc1ccc2c(c1)C(=O)OC21c2ccc(O)cc2Oc2cc(O)ccc21)C(=O)N[C@@H](CC(=O)O)C(N)=O [FITC-labeled VK],"crossing of the cell membrane, live-cell imaging",[5],partially crossed the cell membrane
same,distribution in brain regions,[6],"seen in the cortex, hippocampus, and striatum"
